Key:
[1] = target: T1, CYP2C9 (Homo sapiens, UniProt P11712); assay: IC50 assessment using recombinant human CYPs (probe tolbutamide); format: in vitro ADME; details: recombinant CYP 0.025 μM, tolbutamide 0.05 mg mL^−1, 37 °C, 30 min, n = 3; read-out: IC50 against CYP2C9
T1 construct: purchased IPHASE
Experimental: (§1) Figure 12 The inhibition curves for TNBG-5602 against cytochrome enzymes (mean ± SD, n = 3). TNBG-5602 (final concentrations of 0, 0.01, 0.1, 1.0, 10.0, and 100 μM) was incubated with recombinant cytochrome P450s (final concentration 0.025 μM) and the specific probe substates (final concentration 0.05 mg mL^−1) with NADPH to initiate the metabolic reaction. The incubations were carried out at 37 °C for 30 min with a total volume of 200 μL. The CYP isoforms tested were 2D6 (dextromethorphan), 2C9 (tolbutamide), and 3A4 (testosterone). […] The IC50 values were calculated using the GraphPad Prism statistical software (Version 8) by nonlinear regression analysis.
(§2) The LC-MS/MS instrument was the same as the system used to determine TNBG-5602. The mobile phase consisted of 0.1% formic acid, aqueous solution (Solvent A), and acetonitrile (Solvent B) at a flow rate of 0.3 mL min^−1. […]
(§3) For IC50 assessment, the inhibition curves were established by nonlinear regression analysis plotting the relative activity (y) versus the logarithm of the TNBG-5602 concentration (x). The inhibition curve and the half-maximal inhibitory concentration of TNBG-5602 against each CYP isoform were analyzed using the GraphPad Prism statistical software (version 8). […]

[2] = target: T2, CYP3A4 (Homo sapiens, UniProt P08684); assay: IC50 assessment using recombinant human CYPs (probe testosterone); format: in vitro ADME; details: recombinant CYP 0.025 μM, testosterone 0.05 mg mL^−1, 37 °C, 30 min, n = 3; read-out: IC50 against CYP3A4
T2 construct: purchased IPHASE
T2 sequence (P08684 whole entry): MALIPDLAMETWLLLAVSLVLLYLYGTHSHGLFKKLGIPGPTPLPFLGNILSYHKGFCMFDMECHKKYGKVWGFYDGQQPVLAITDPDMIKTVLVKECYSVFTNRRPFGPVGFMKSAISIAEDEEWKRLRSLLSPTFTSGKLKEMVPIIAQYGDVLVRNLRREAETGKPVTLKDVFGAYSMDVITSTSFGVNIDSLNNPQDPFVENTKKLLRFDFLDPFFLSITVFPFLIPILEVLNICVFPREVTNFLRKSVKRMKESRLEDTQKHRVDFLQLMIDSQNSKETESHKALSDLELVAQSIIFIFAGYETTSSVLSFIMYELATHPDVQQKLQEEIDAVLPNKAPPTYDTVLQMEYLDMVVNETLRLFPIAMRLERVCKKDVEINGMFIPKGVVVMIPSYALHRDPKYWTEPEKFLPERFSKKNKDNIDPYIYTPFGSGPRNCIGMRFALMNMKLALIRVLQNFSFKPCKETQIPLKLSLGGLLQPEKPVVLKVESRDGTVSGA
Experimental: as §1, §2, §3

[3] = system: cancer cells and tissues; design: method as in PMID 31446646; details: oil red O staining; cited from earlier work

T1 sequence (P11712 whole entry): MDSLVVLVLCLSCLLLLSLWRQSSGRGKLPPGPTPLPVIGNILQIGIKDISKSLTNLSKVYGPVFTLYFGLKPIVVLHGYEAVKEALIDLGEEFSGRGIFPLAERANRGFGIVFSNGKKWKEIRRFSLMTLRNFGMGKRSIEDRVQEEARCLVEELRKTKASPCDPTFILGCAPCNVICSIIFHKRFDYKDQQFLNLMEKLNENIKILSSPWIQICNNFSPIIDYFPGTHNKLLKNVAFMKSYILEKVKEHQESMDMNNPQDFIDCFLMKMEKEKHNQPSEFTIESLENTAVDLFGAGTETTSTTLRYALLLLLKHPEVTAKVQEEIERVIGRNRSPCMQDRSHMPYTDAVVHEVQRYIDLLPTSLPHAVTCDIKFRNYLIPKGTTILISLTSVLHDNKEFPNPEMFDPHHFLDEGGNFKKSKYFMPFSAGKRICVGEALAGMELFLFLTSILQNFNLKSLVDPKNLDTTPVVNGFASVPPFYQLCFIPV

CN(C)CCN1CC2c3ccccc3CCN2c2nc3ccccc3nc21 (stereo not drawn) [TNBG-5602]
IC50 [1]: 9.63 µM
IC50 [2]: 18.7 µM
lipid accumulation in cancer cells and tissues [3]: selectively cause lipid accumulation

Reference: publication PMC9024597, “The Biological Fate of a Novel Anticancer Drug Candidate TNBG-5602: Metabolic Profile, Interaction with CYP450, and Pharmacokinetics in Rats” (Molecules, 2022)
